Patent US10271543B2, “Systems and methods for cryopreservation of cells” (Cook General Biotechnology LLC, priority 2006, dated 2019)

Assays:
human spermatozoa = assay: Cytotoxicity of bound cholesterol on semen in culture (motility evaluations); format: cell-based; conditions: culture plates coated with 100 µl sterol solution; 1, 2, 4 and 8 hours of incubation
Description: In this experiment, liquefied semen samples were exposed to culture plates that had been coated with 100 µl of the sterol solution.

human red blood cells = conditions: 3.3M (30%) glycerol; over a 2-3 log range in cooling rates; cited from earlier work

Row | SMILES | cytotoxic effect (motility evaluations) (human spermatozoa) | survival (human red blood cells)
1 | CC(C)CCC[C@@H](C)[C@H]1CC[C@H]2[C@@H]3CC=C4C[C@@H](O)CC[C@]4(C)[C@H]3CC[C@]12C [bound cholesterol, cholesterol] | no significant cytotoxic effect | 
2 | OCC(O)CO [glycerol] |  | around 90%
